Series [1] concerns angiotensin II (AII)-induced AAA. Kind of series: AII-induced AAA mouse model, post-treatment. The class given is in vivo. From the text: To determine if senescence is a major cause of aneurysm development, the association between senescence and aneurysms using the angiotensin II (AII)-induced AAA model was investigated. Mice were infused AII for four weeks using osmotic mini-pump implantation into Apoe^−/− transgenic mouse.
To investigate the therapeutic potential of ketotherapy for abdominal aortic aneurysm (AAA), Ketogenic-diet (KD) and Ketone-ester (KE) were provided to angiotensin II (AII)-induced mouse model of AAA (FIG. 6). […] After completing AII infusion, the mice were post-treated with KD and KE for two to four weeks.
To investigate the time-dependent reduction of aorta diameter, the inner diameter of the aorta using ultrasound analysis was measured.

For another series, the system named is normal SMCs (NC). Kind of series: Caspase 3 activity assay on normal SMCs. The class given is cell-based. The following applies: FIG. 2I. Here is the method:
FIGS. 2A-2L. (a) Cytotoxicity assay of normal smooth muscle cells (NS) and senescent smooth muscle cells (SMCs). Replicative senescent SMCs (RS) and premature senescent SMCs, stimulated by H2O2 (HP), arsenic (Ars), and Nutlin 3a (Nut) treatment were treated with βHB, s-βHB, and ABT-737. (b) Flow cytometry analysis of apoptosis by βHB or s-βHB in radiation (10 Gy)-induced senescent SMC. (c) Quantitation of apoptotic cell and senescent cell after treating βHB and s-βHB in radiation-induced senescent SMC. (d) Representative aorta image of AII-infused mice with post-treatment of ABT-737, βHB and s-βHB. (e) External diameter of abdominal aorta infused with AII and post-treated with ABT-737 βHB and s-βHB. (f) SA-βGal activity assay of the whole aorta infused with AII, and post-treated with ABT-737, KD, or KE. (g) Quantitation of senescent area on aorta of AII-infused mice, and post-treated with KD, KE and ABT-737. (h) TUNEL assay on the abdominal aorta of AII infused mice, and treated with ABT-737, βHB, or s-βHB. SM-α Actin (SMA) and DAPI are co-stained after TUNEL reaction. (i) Caspase 3 activity assay on normal SMCs (NC) treated with βHB, or s-βHB, and ABT-737 comparing to normal cells pretreated with Nutlin-3a. (j) Caspase 3 activity assay on senescent SMCs (SNC) treated with βHB, or s-βHB, and ABT-737 compared to senescent cells pretreated with pifithrin-α. (k) Western blot analysis for p53 and puma expression on abdominal aorta tissue from mice treated with AII or KE. (I) Immunohistochemistry staining for puma expression on abdominal aorta infused by AII and post-treated with KE.
To overcome the anti-apoptotic barrier of senescence cells, senolytics usually target p53/Bcl2 cascades. Moreover, p53 is considered as a barrier to prevent apoptosis in senescence cells. Therefore, it was investigated if βHB-mediated apoptosis is p53 dependent. […] To further validate p53 dependent apoptosis on AAA, p53 activation and puma expression were investigated. […] In addition, inflammatory response accompanying the apoptosis of senescence cells was observed specifically in the abdominal aorta tissue, while systemic inflammation decreased during ketotherapy (FIGS. 10A-F). […] Ketotherapy can lower the blood pressure caused by AII infusion, which is not the case with ABT-737 (FIGS. 10H-J).

The subject of series [2] is angiotensin II (AII)-induced AAA. The experiment in a line: AII-induced AAA mouse model, post-treatment. The following applies: injection every other day for two weeks, FIG. 2E. The class given is in vivo.
A short description of series [3]: Metabolic alterations by post-treatment. The class given is in vivo, mouse. Conditions: four weeks, FIG. 7. An excerpt: In order to identify the primary factors for reversing AAA formation, metabolic alterations by post-treatment were investigated. […] Thus, abnormal lipid metabolism caused by KD is unlikely required or helpful for AAA recovery.
For series [4], the system named is AII-induced AAA development. The experiment in a line: Pretreatment with ketotherapy in AII-induced AAA. The following applies: FIG. 8A-C. The class given is in vivo, mouse. An excerpt:
Senescence is considered to be major risk factor that promotes AAA development. […] To determine whether vascular senescence is critical for AAA formation, senescence was prevented by pretreatment with ketotherapy.
(§1) To confirm the possibility that the therapeutic effect of βHB on AAA is not only applied to AII-induced AAA, the CaCl2)-induced AAA animal model was also examined as well (FIG. 5A).

Another series has as its system CaCl2-induced AAA. Kind of series: CaCl2-induced AAA animal model, post-treatment. The class given is in vivo, mouse. The method, then:
FIGS. 5A-5J. (a) Representative image of aorta which developed CaCl2)-induced AAA, and post-treated with KD, KE, βHB, s-βHB, or ABT-737. KD is provided to mice for 4 weeks, KE is administrated with drinking water, βHB, s-βHB or ABT-737 are IP injected for 2 weeks with 48h intervals. (b) Incidence of AAA by CaCl2) treatment and proportion of mice recovered from the AAA after post-treatment of KD, KE, βHB and s-βHB for 2 weeks. (c) Time-dependent observation of inner diameter after CaCl2) treatment and post-treatment of KD or KE (28˜56 days after surgery). (d) Comparison of ultrasound images of CaCl2)-induced AAA to the identical aorta post-treated with βHB for 2 weeks. (e) H&E staining of aorta from the mice developed with CaCl2)-induced AAA, and post-treated with KD, KE, βHB, and s-βHB. (f) SA β-Gal activity assay on aorta which developed CaCl2)-induced AAA, and post-treated with KD, KE, βHB, s-βHB, or ABT-737. (g) Quantitation of senescent area on aorta developed with CaCl2)-induced AAA, and post-treated with KD, KE, βHB, s-βHB. (h) Verhoeff Van Gieson/EVG staining of abdominal aorta developed with CaCl2)-induced AAA, post-treated with KD, KE, βHB and s-βHB. (i) Average number of elastic fibers on abdominal aorta presented at FIG. 5H. (j) Measurement of Pulse Wave Velocity (PWV) on CaCl2)-infused mice with post-treatment of KD, KE, βHB, and s-βHB.
as §1
To further validate the therapeutic efficacy of s-βHB on aneurysms, we used a CaCl2-induced AAA animal model as well as an angiotensin II infusion model. […] Two-way ANOVA, s-βHB vs βHB, #P<0.01, n=10. Since the elimination of senescent SMCs is critical for the recovery of AAA, we investigated that s-βHB is also effective to remove senescent cells in CaCl2)-induced aneurysms. […] Student's T-test for s-βHB vs βHB, ^#P<0.05, n=8.

In series [5] the test system is aortic dissection (TAD, AAD). Kind of series: BAPN + AngII mouse model of aortic dissection. The class given is in vivo. Here is the method: (a) schematic description of aortic dissection model and ketone treatment. Five-week-old C57BL/6 mice were continuously treated with β-aminopropionitrile (BAPN, 3 g/L/day in drinking water) for 28 days. To test the impacts of ketone body, BAPN-treated mice at day 17 to day 31 were given ketone ester (KE, D-BHB 1-3 butanediol monoester) (20 g/L and 50 gL at 5 mL per day) in drinking water. Further, the BAPN-treated mice, with or without ketone treatment, were continuously infused with angiotensin (AngII, 1.44 mg/kg/day) for three days via subcutaneously implanted osmotic pumps). Three days after AngII infusion, the mice were euthanized to assay for aortic dissection.
Five week old C57BL/6 mice were continuously treated with β-aminopropionitrile (BAPN, 3 g/L/day in drinking water)) for 28 days. To test the impacts of ketone body, BAPN-treated mice at day 17 to day 31 were given ketone ester (KE, D-BHB 1-3 butanediol monoester) (20 g/L and 50 g/L) in drinking water. Further, the BAPN-treated mice, with or without ketone treatment, were continuously infused with angiotensin (AngII, 1.44 mg/kg/day) for three days via subcutaneously implanted osmotic pumps). Three days after AngII infusion, the mice were euthanized for assay aortic dissection.

For series [6] the following is noted: Soto-Mota et al. 2019; cited from earlier work.

Molecules are shown by their SMILES. Entries after “also recorded” stand apart in the source; their conditions may differ.

Turning to `CN(C)CC[C@H](CSc1ccccc1)Nc1ccc(S(=O)(=O)NC(=O)c2ccc(N3CCN(Cc4ccccc4-c4ccc(Cl)cc4)CC3)cc2)cc1[N+](=O)[O-]` [ABT-737, reference compound], the “TUNEL assay, apoptosis of senescent plaque in the aneurysm” value in series [1] (FIG. 2H) is on record as “induced targeted apoptosis of senescent plaque”. For the same compound, the “branched elastic fibers, Verhoeff Van Gieson/EVG stain” value in series [1] (FIG. 3C) is “less branched elastic fibers”. Also, the “number of elastic layers / elastic recovery” value in series [1] (FIG. 3D) is “less effective on elastic recovery”. In series [1] (blood clots inside aneurysm plaque, FIG. 3B), the aortic dissection entry is “caused aortic dissection”. Also, the “volume of aneurysm plaque” value in series [1] (injected) is listed as “successfully reduced”. Further, the “AAA on whole aorta images” value in series [1] (injected every other day for two weeks, FIG. 2D) is “successfully rescued”. Besides, the “mice with abdominal rupture resulting in sudden death” value in series [1] (injected mice, FIG. 3A) stood at 30%. For the same compound, the “apoptosis in normal cells after p53 stabilization” value in the series with normal SMCs (NC) (after p53 stabilization by Nutlin 3a) is given as “triggers apoptosis”. Also, the “apoptosis in normal cells (NC)” value in the series on normal SMCs (NC) (without Nutlin 3a) is “did not induce apoptosis”. The “external diameter of the abdominal aorta” value in series [2] was “significantly reduced”.

For the compound `C[C@@H](O)CCOC(=O)C[C@@H](C)O` [KE, [(3R)-3-hydroxybutyl] (3R)-3-hydroxybutanoate], the “aneurysm formation, ultrasound images of identical mouse aorta” value in series [1] (FIG. 1D) was “reverts aneurysm formation”. Further, the “abdominal aorta stiffness, Pulse Wave Velocity (PWV)” value in series [1] (FIG. 3H, FIG. 18A) was “ameliorated vascular stiffness; also recorded: reversed aneurysm-associated aortic stiffness”. The “SMC markers (HEXIM1, Calponin 1, SM α-Actin) and dedifferentiation markers (Oct4, MMP2), Western blot” value in series [1] (abdominal aorta, post-treatment, FIG. 3E) was “reversed all the markers of dedifferentiation and simultaneously recovered SMC markers”. Besides, the “degenerative markers in PVAT” value in series [1] (abdominal versus thoracic PVAT, FIG. 3G) was “specifically reverses degenerative markers, col1A1, RUNX2, and PU.1 in abdominal perivascular adipose (PVAT), not in thoracic PVAT”. Besides, the “recovered proportion of AII-induced AAA” value in series [1] (post-treatment 2 to 4 weeks after 4 weeks AII infusion, C57Bl6 ApoE−/− mice, AAA incidence 60%, FIG. 1A) is 26%. In series [1] (post-treatment 2 to 4 weeks, FIG. 1A), the “proportion of AII-induced AAA” value is “successfully reduced”. In addition, the “enlarged external diameter of AAA” value in series [1] (post-treatment of KD and KE, FIG. 1C) is recorded as “decreased significantly”. Moreover, the “collagen network, Masson's trichrome staining” value in series [1] (post-treatment, FIG. 3F) is on record as “reconstituted at the perivascular area”. The “myofibroblast, SM α-Actin and FSP co-staining in aortic wall” value in series [1] (post-treatment, FIGS. 17A-17B) is reported as “increases”. In addition, the “p53 activation and puma expression on abdominal aorta” value in series [1] (post-treatment, Western blot and IHC, FIG. 2K) is “activated phosphorylation of p53 and elevated puma expression”. Also, in series [3], the “metabolic alterations (body weight, fat mass, blood glucose, TG, liver lipid, insulin resistance)” value is given as “did not cause metabolic changes such as insulin resistance”. Also, in series [4], the “AII-induced AAA development” value was “strongly inhibited”. The “recovery from CaCl2-induced AAA” value with CaCl2-induced AAA (FIGS. 5A and 5B) is on record as “Effective recovery”. Moreover, in the series with CaCl2-induced AAA (post-treatment after four weeks, FIG. 5C), the AAA progression result is recorded as “inhibited AAA progression”. In series [5] (20 g/L and 50 g/L in drinking water, day 17 to day 31, FIG. 19B), the “incidence of TAD” value is “significantly reduces”. For the same compound, the “incidence of AAD” value in series [5] (20 g/L and 50 g/L in drinking water, day 17 to day 31, FIG. 19C) is listed as “significantly reduces”. The survival rate entry in series [5] (high dose 50 g/L, FIG. 19D) is recorded as “significantly increase”. Moreover, the “metabolic fate (hydrolysis)” value in series [6] was “complete enzymatic hydrolysis to release R-βHB and R-butane-1,3-diol”.

The record behind these values is US20240342121A1, “THE USE OF BETA-HYDROXYBUTYRATES FOR THE TREATMENT OR PREVENTION OF ANEURYSMS AND DISSECTIONS” (priority 2021, published 2024).
